These results are taken from article PMC8313942, “Lipase from new isolate Bacillus cereus ATA179: optimization of production conditions, partial purification, characterization and its potential in the detergent industry” (Turkish Journal of Biology, 2021).

In the assay the test system is T1, lipase from Bacillus cereus ATA179.
T1 construct: gene extracellular lipase; 47 kDa by SDS-PAGE
The assay can be described thus: lipase activity at varied tributyrin, Lineweaver-Burk plot. In kind it is biochemical. The conditions noted are these: tributyrin 0.1-1.2 mM; partially purified enzyme; pH and temperature of the kinetic assay not given.

Regarding `CCCC(=O)OCC(COC(=O)CCC)OC(=O)CCC` [tributyrin], the Michaelis constant (Km) was found to be 110 µM.

A word on the Km: it is the substrate concentration at which the rate is half of its maximum.
